Test results as given in patent US4428938A, “Peptides affecting the immune regulation and a process for their preparation” (Richter Gedeon Vegyeszeti Gyar Rt., priority 1981, dated 1984).
Residues, ends and D or L forms follow the SMILES beside them.

Assays:
[1] = tested on: lymphocytes of patients suffering from rheumatoid arthritis; test: Active E-rosette test, lymphocytes of rheumatoid arthritis patients; type: cell-based, human; details: for E-rosette forming activity, percentage amount of active lymphocytes: n = 4; for Effect on E-rosette forming activity (in words): 10^-9 moles/lit.
Experimental: (§1) The active E-rosette test was carried out according to a modified method of Wybran et al [Wybran et al: New Engl. J. Med. 292, 475 (1975)] by the lymphocites of healthy and autoimmune patients (rheumatoid arthritis and systemic lupus erythematosus). To 50 μl of a lymphocyte cell suspension 10^-3 -10^-11 moles/lit. solutions of the test material were added and the mixture was incubated in an atmosphere containing 5.0% of carbon dioxide, at 37° C. for 60 minutes. Thereafter 50 μlit. of a 1% sheep erythrocite suspension were added and the mixture was centrifuged at 1000 r.p.m. for 10 minutes followed by shaking with a modified Gallenkampf-shaker (shaking time: 30 sec, stroke: 8 cm, shaking frequency: 65/min.). The rosettes were fixed with a 0.1% glutaric aldehyde (50 μlit. for each tube, 3 min.). Lymphocytes bonding more than three sheep erythrocite were counted under a microscope and 4×100 cells were evaluated. The separated lymphocytes contain macrophages and polymorphonuclear cells (up to 10%) as an impurity. The number of the cells forming the rosettes was corrected by this value each case.

[2] = tested on: lymphocytes of healthy persons; test: Active E-rosette test, lymphocytes of healthy persons; type: cell-based, human; details: for E-rosette forming activity, percentage amount of active lymphocytes: n = 4
Experimental: as §1

[3] = tested on: antibody production against sheep erythrocyte; test: Effect on antibody production (Ceglowski's method), agglutination titer; type: in vivo, H. Wistar rats
Experimental: (1) The effect on antibody production was tested according to Ceglowski's method [Ceglowski: Ann. N.Y. Acad. Sci. 249, 343 (1975)]. New-born H. Wistar rats were treated with single 25 μlit. doses of 4×10^-3 -4×10^-7 moles/lit. of the test material (9 animals for each dose) at the latest at the 12th hour after birth. The 14-day animals were then immunized with a sheep erythrocyte suspension administering 0.5 ml. of a 5% sheep erythrocyte suspension each animal intraperitoneally. On the 7th day after immunization the animals were decapitated. The blood of three animals was mixed and from the serum obtained (after centrifuging at 3000 r.p.m. for 10 minutes) the titers for antibodies were determined by the method of Takatsy [Takatsy: Acta Microbiol. Acad. Sci. Hung. 3, 191 (1955)]. The results are expressed in agglutination titers. The titer corresponds to the […] dilution of the serum in which agglutination can be observed.

[4] = tested on: plaque forming spleen cells (PFC); test: Effect on plaque forming spleen cells (PFC); type: in vivo, H. Wistar rats; details: for Ratio of the plaque formation produced by treated and untreated (control) animals: new-born animals
Experimental: (2) The number of the cells producing a specific antibody was determined by the method of Canningham Handbook of Experimental Immunology (editor: D. M. Weir), 2nd Volume, p. 285, Blackwell, Oxford-London (1978). According to this method from the spleen cells of immunized animals, sheep erythrocyte suspension and complement a homogenous suspension was prepared and it was placed into a chamber suitable for forming a single cell layer. Around the spleen cells lytic areolas are formed, the number of which is identical with the number of the cells producing a specific antibody (plaque forming cells, PFC).
The test animals, not later than 12 hour after birth, were given a single i.p. dose of the test material. According to the method (1) three different doses of each substance were tested. On the 7th day after immunization the plaque formation of the spleen cells isolated from the animals was examined.

[5] = tested on: lymphocytes forming the E-rosette; test: E-rosette formation, summary statement; type: cell-based
Experimental: as §1

[6] = tested on: antibody production against sheep erythrocyte; test: Effect on antibody production (Ceglowski's method), agglutination titer; type: in vivo, H. Wistar rats; details: single 25 μlit. dose of 4·10^-8 moles/liter to new-born rats

SMILES	E-rosette forming activity, percentage amount of active lymphocytes ([1]; 10^-3 moles/liter) [%]	E-rosette forming activity, percentage amount of active lymphocytes ([1]; 10^-5 moles/liter) [%]	E-rosette forming activity, percentage amount of active lymphocytes ([1]; 10^-7 moles/liter) [%]	Effect on E-rosette forming activity (in words) [1]	E-rosette forming activity, percentage amount of active lymphocytes ([1]; 10^-9 moles/liter) [%]	E-rosette forming activity, percentage amount of active lymphocytes ([1]; 10^-11 moles/liter) [%]	E-rosette forming activity, percentage amount of active lymphocytes ([2]; 10^-3 moles/liter) [%]	E-rosette forming activity, percentage amount of active lymphocytes ([2]; 10^-5 moles/liter) [%]	E-rosette forming activity, percentage amount of active lymphocytes ([2]; 10^-7 moles/liter) [%]	E-rosette forming activity, percentage amount of active lymphocytes ([2]; 10^-9 moles/liter) [%]	E-rosette forming activity, percentage amount of active lymphocytes ([2]; 10^-11 moles/liter) [%]	Activity: increases the number of the lymphocytes forming the E-rosette [5]	further results
N=C(N)NCCC[C@H](N)C(=O)N[C@@H](CCCCN)C(=O)N[C@@H](CC(=O)O)C(=O)O [Arg--Lys--Asp, Arg-Lys-Asp] (H-Arg-Lys-Asp-OH)	27.2	28.6	28.8	significantly stimulated	30.7	28.4	29.9	34.1	41.7	39.3	35.9	active	Effect on E-rosette forming activity (in words) ([2]; 10^-7 moles/lit.): significant stimulating effect; In vivo effect on the antibody production (in words) ([3]; 4.10^-6 moles/lit.): significant stimulating activity; Antibody production, agglutination titer (X ± S.D.) ([3]; single 25 μlit. dose of 4·10^-4 moles/liter to new-born rats): 6.0 ± 0; Antibody production, agglutination titer (X ± S.D.) ([3]; single 25 μlit. dose of 4·10^-6 moles/liter to new-born rats): 7.3 ± 0.6; In vivo effect on plaque forming spleen cells (in words) ([4]; in lower doses): about two-times increase; Ratio of the plaque formation produced by treated and untreated (control) animals ([4]; single i.p. dose 1.0·10^-4 mmoles): 0.7; Ratio of the plaque formation produced by treated and untreated (control) animals ([4]; single i.p. dose 1.0·10^-6 mmoles): 2.1; Ratio of the plaque formation produced by treated and untreated (control) animals ([4]; single i.p. dose 1.0·10^-8 mmoles): 1.8; Antibody production, agglutination titer (X ± S.D.) [6]: 6.0 ± 1.2
CC(C)[C@H](NC(=O)[C@H](CC(=O)O)NC(=O)[C@H](CCCCN)NC(=O)[C@@H](N)CCCNC(=N)N)C(=O)O [Arg--Lys--Asp--Val, Arg-Lys-Asp-Val] (H-RKDV-OH)	36.2	31.5	34.4	significantly stimulated	36.8	32.6	41.3	39.1	38.5	43.0	33.7	active	Effect on E-rosette forming activity (in words) ([2]; 10^-9 moles/lit.): significant stimulating effect; Ratio of the plaque formation produced by treated and untreated (control) animals ([4]; single i.p. dose 2.5·10^-3 mmoles): 0.34; Ratio of the plaque formation produced by treated and untreated (control) animals ([4]; single i.p. dose 2.5·10^-4 mmoles): 0.8
